# Measured values as given in publication PMC3093627 (Research in Pharmaceutical Sciences, 2010).
# Assays:
# [1] = system: morphine brain distribution; details: rats; cited from earlier work
# [2] = system: MDCK II cells; details: probenecid 10 μM, d-glucose 5 μM, digoxin 5 μM, M6G 100 μg/ml, cyclosporin 10 μM
# Protocol: Madin-Darby Canine Kidney epithelial cell lines (MDCK-II, passages 3-7), and MDCK I-MDR (MDCK-PGP or MDCK WT, passages)([6]–[10]) were purchased from Borst- Amsterdam. MDCK-PGP is a MDCK-II recombinant clone containing the human MDR-I PGP gene.
# When cell growth and cell number were sufficient, the cells were transferred into the transwells. The number of cells in each well was calculated using Eq. 1
# In 48/case plates, with area of 0.3318 Cm^2for each insert, the required cells per insert were 13,272 cells. This number of cells was dispensed in 0.25 ml media for each insert and the cells suspension was poured into apical chambers of the inserts. Each treatment group comprised 4 replicates. One ml of cell free media was added to basal chambers. […]
# After completing the incubation period, TEER of each Transwell inserts was measured using an EVOM epithelial voltammeter (WIP, Sarasota, FL) and the Transwell inserts were distributed evenly between treatment groups, based on the TEER measurement. […] The corrected cumulative concentrations of drug were determined based on the amount of removed and added buffer in each series of wells at each interval and the corrected concentrations were used for calculating the apparent permeability coefficient (ρ) according to the Eq. 2: […]
SMILES,Reduction of morphine brain distribution [1],Effect on morphine permeability via MDCK II cells [2]
COc1cc2c(cc1OC)CN(CCc1ccc(NC(=O)c3cccc4c(=O)c5cccc(OC)c5[nH]c34)cc1)CC2 [GF120918],42%,
"CN1CC[C@]23c4c5ccc(O)c4O[C@H]2[C@@H](O[C@@H]2O[C@H](C(=O)O)[C@@H](O)[C@H](O)[C@H]2O)C=C[C@H]3[C@H]1C5 [M6G, morphine 6 glucoronide]",,no significant effects
C[C@H]1O[C@@H](O[C@H]2[C@@H](O)C[C@H](O[C@H]3[C@@H](O)C[C@H](O[C@H]4CC[C@@]5(C)[C@H](CC[C@@H]6[C@@H]5C[C@@H](O)[C@]5(C)[C@@H](C7=CC(=O)OC7)CC[C@]65O)C4)O[C@@H]3C)O[C@@H]2C)C[C@H](O)[C@@H]1O [digoxin],,significant fall
